Values belong to the compound of their own block, whether it stands above or below them.
What was measured:
[1] = Intracellular half-life of EFdA triphosphate in human; assay type: in vivo; settings: cells (intracellular; cell type not given), read-out: intracellular half-life of EFdA triphosphate (EFdA-TP) (converted)
[2] = Stability in Human Plasma (conversion to EFdA); assay type: in vitro ADME
Excerpt: (§1) The adenosine derivative having the Formula 1-A was produced according to the process described in PCT publication WO2021021717, published on Feb. 4, 2021, herein incorporated by reference. [table]

[3] = Stability in Human Liver S9 (conversion to EFdA); assay type: in vitro ADME
Excerpt: as §1

[4] = Phase I study: pharmacokinetics of 1-A and islatravir in plasma; assay type: in vivo, human
Excerpt: (§2) This example describes results from a Phase I, randomized, double-blind, placebo-controlled study for adenosine derivative having Formula 1-A (“1-A”), which is a prodrug of islatravir (ISL). Following oral absorption, 1-A is rapidly converted to ISL, which is metabolized intracellularly to the active metabolite, ISL triphosphate (ISL-TP). The objectives of the study were to assess the safety, tolerability, and PK profiles of 1-A and ISL in plasma; and ISL diphosphate (ISL-DP) and ISL-TP in human PBMCs.
(§3) Methods. Healthy adult subjects were enrolled in five single ascending dose and two multiple ascending dose cohorts. 1-A was administered to single dose cohorts in amounts of 10 mg, 25 mg, 50 mg, 100 mg or 200 mg. 1-A was administered to multiple dose cohorts in amounts of 10 mg per week for 3 weeks or 25 mg per week for 3 weeks. 1-A was orally administered in the fasted state using an oral solution formulation. Safety-related assessments included physical examinations, ECGs, vital signs, AEs, and standard clinical laboratory tests.

[5] = Phase I study: pharmacokinetics of ISL-TP in PBMCs; assay type: in vivo, human; settings: for ISL-TP in PBMCs AUClast / ISL-TP in PBMCs Cmax: 3 weekly oral doses of 25 mg 1-A, healthy adults, mean
Excerpt: as §2, §3

[6] = Phase I study: safety and tolerability (treatment-emergent adverse events); assay type: in vivo, human
Description: Following oral absorption, 1-A is rapidly converted to ISL, which is metabolized intracellularly to the active metabolite, ISL triphosphate (ISL-TP). The objectives of the study were to assess the safety, tolerability, and PK profiles of 1-A and ISL in plasma; and ISL diphosphate (ISL-DP) and ISL-TP in human PBMCs.
as §3

[7] = single or multiple oral doses of 1-A, 10 mg to 200 mg

half-life [1]: ~108 h
Compound: C#C[C@]1(COP(=O)(O)OP(=O)(O)OP(=O)(O)O)O[C@@H](n2cnc3c(N)nc(F)nc32)C[C@@H]1O [EFdA-TP, 4′-ethynyl-2-fluoro-2′-deoxyadenosine triphosphate]

Compound: C#C[C@]1(COC(=O)OCc2oc(=O)oc2C)O[C@@H](n2cnc3c(N)nc(F)nc32)C[C@@H]1O [Formula 1-A, ((2R,3S,5R)-5-(6-amino-2-fluoro-9H-purin-9-yl)-2-ethynyl-3-hydroxytetrahydro-furan-2-yl)methyl ((5-methyl-2-oxo-1,3-dioxol-4-yl)methyl) carbonate]
half-life ([2]; human plasma): < 0.833 h | conversion to the target drug ([2]; human plasma assay): converted to the target drug efficiently | Stability in Human Plasma Formation of EFdA at 60 min ([2]; human plasma, 60 min): Yes | half-life ([3]; human liver S9): < 0.833 h | Stability in Human Liver S9 Formation of EFdA at 60 min ([3]; human liver S9, 60 min): Yes | conversion to the target drug ([3]; human liver S9 assay): converted to the target drug efficiently | PK profiles of ISL in plasma and ISL-TP in PBMC cells ([4]; after single and multiple oral administrations of 1-A): linear pharmacokinetics | systemic exposure to 1-A (plasma, LLOQ) ([4]; single or multiple oral administrations of 1-A up to 200 mg, healthy adults): < 1.0 ng/mL | EFdA accumulation in plasma [4, 7]: No meaningful EFdA accumulation | ISL plasma PK profiles [4, 7]: Dose-dependent | ISL-TP in PBMCs AUClast ([5]; Day 1): 617 h*pmol/10^6 cells | ISL-TP in PBMCs Cmax ([5]; Day 1): 5.70 pmol/10^6 cells | ISL-TP in PBMCs AUClast ([5]; Day 15): 2210 h*pmol/10^6 cells | ISL-TP in PBMCs Cmax ([5]; Day 15): 15.4 pmol/10^6 cells | ISL-TP accumulation in PBMCs ([5]; after 3 weekly doses of 25 mg 1-A): significant ISL-TP accumulations | intracellular formation of ISL-TP in PBMCs ([5]; oral 1-A, dose-dependent manner): Efficient intracellular formation | Number (%) of Subjects with Any Death ([6]; 10 mg QW × 3 oral (N = 3)): 0 | Number (%) of Subjects with Any TEAE ([6]; 10 mg QW × 3 oral (N = 3)): 2 (66.7%) | Number (%) of Subjects with Any TEAE Grade 1 ([6]; 10 mg QW × 3 oral (N = 3)): 2 (66.7%) | Number (%) of Subjects with Any TEAE Grade 2, 3, 4, or 5 ([6]; 10 mg QW × 3 oral (N = 3)): 0 | Number (%) of Subjects with Any TEAE Leading to Premature Discontinuation of Study Drug ([6]; 10 mg QW × 3 oral (N = 3)): 0 | Number (%) of Subjects with Any TEAE Related to Study Drug ([6]; 10 mg QW × 3 oral (N = 3)): 2 (66.7%) | Number (%) of Subjects with Any TEAE Related to Study Drug Grade 1 ([6]; 10 mg QW × 3 oral (N = 3)): 2 (66.7%) | Number (%) of Subjects with Any TEAE Related to Study Drug Grade 2, 3, 4, or 5 ([6]; 10 mg QW × 3 oral (N = 3)): 0 | Number (%) of Subjects with Any Treatment-emergent Serious AE ([6]; 10 mg QW × 3 oral (N = 3)): 0 | Number (%) of Subjects with Any Death ([6]; 25 mg QW × 3 oral (N = 6)): 0 | Number (%) of Subjects with Any TEAE ([6]; 25 mg QW × 3 oral (N = 6)): 2 (33.3%) | Number (%) of Subjects with Any TEAE Grade 1 ([6]; 25 mg QW × 3 oral (N = 6)): 2 (33.3%) | Number (%) of Subjects with Any TEAE Grade 2, 3, 4, or 5 ([6]; 25 mg QW × 3 oral (N = 6)): 0 | Number (%) of Subjects with Any TEAE Leading to Premature Discontinuation of Study Drug ([6]; 25 mg QW × 3 oral (N = 6)): 0 | Number (%) of Subjects with Any TEAE Related to Study Drug ([6]; 25 mg QW × 3 oral (N = 6)): 2 (33.3%) | Number (%) of Subjects with Any TEAE Related to Study Drug Grade 1 ([6]; 25 mg QW × 3 oral (N = 6)): 2 (33.3%) | Number (%) of Subjects with Any TEAE Related to Study Drug Grade 2, 3, 4, or 5 ([6]; 25 mg QW × 3 oral (N = 6)): 0 | Number (%) of Subjects with Any Treatment-emergent Serious AE ([6]; 25 mg QW × 3 oral (N = 6)): 0 | tolerability ([6]; single doses up to 200 mg and repeat doses up to 25 mg, healthy adults): generally well tolerated
